Measured values: patent US12171801B2, “Compositions and related methods for controlling vector-borne diseases” (priority 2017, dated 2024)
Entries after “also recorded” stand apart in the source; their conditions may differ.

How the values were obtained:
[1] = test system: Asaia; experiment: Asaia quantification by qPCR in midguts of azithromycin blood-fed mosquitoes; assay type: in vivo, Anopheles coluzzii; conditions: azithromycin 0.1, 1 or 5 μg/ml in blood meals; midgut
Procedure: Therapeutic design: Blood meals mixed with azithromycin solutions are formulated with final antibiotic concentrations of 0 (negative control), 0.1, 1, or 5 μg/ml in 1 mL of blood.
Azithromycin solutions are made by dissolving azithromycin (SIGMA-ALDRICH, PZ0007) in DMSO. Different volumes of azithromycin solution are added to fresh blood to total 1 mL in preparation for blood meals. The final azithromycin concentrations in the blood are 0 (just solvent as control solution), 0.1, 1, or 5 μg/ml.
For each Plasmodium infection, at least 100 age-matched, 2- to 3-day-old, mosquitoes per condition are offered a control or experimental blood meal from a membrane-feeding device (2 ml Eppendorf tube) covered with parafilm and kept at 37° C. and nonengorged mosquitoes are removed. Meals are given every four days for a total of three blood meals. […] Deaths are counted daily and carcasses are removed and stored for Asaia analysis as described herein. […]
Before dissection, mosquitoes are immersed in 70% ethanol for 5 minutes then rinsed 3 times in sterile phosphate-buffered saline (PBS) to kill and remove surface bacteria, thus minimizing sample contamination with cuticle bacteria during dissection. […] The 16S ribosomal DNA (rDNA) is used for Asaia quantification and is shown as a ratio of the Anopheles housekeeping gene 40S ribosomal protein S7 (Vector-Base gene ID AGAP010592). […]

[2] = test system: Anopheles coluzzii mosquitoes; experiment: Survival of mosquitoes given azithromycin blood meals; assay type: in vivo; conditions: azithromycin 0.1, 1 or 5 μg/ml in blood meals
Procedure: For each Plasmodium infection, at least 100 age-matched, 2- to 3-day-old, mosquitoes per condition are offered a control or experimental blood meal from a membrane-feeding device (2 ml Eppendorf tube) covered with parafilm and kept at 37° C. and nonengorged mosquitoes are removed. Meals are given every four days for a total of three blood meals. Between the blood meals, mosquitoes are provided with a cotton pad moistened with distilled water for oviposition. Unfed mosquitoes are not removed after the second and later blood meals. Deaths are counted daily and carcasses are removed and stored for Asaia analysis as described herein. At least 50 mosquitoes per concentration of azithromycin are used for each replicate. At the end of the last blood meal, mosquitoes are kept for 12 hours before dissection.
The survival rates of mosquitoes treated with azithromycin are compared to the mosquitoes treated with the negative control.

[3] = test system: Escherichia coli DH5a; experiment: Antibiotic coating and penetration of corn kernels (E. coli growth on LB plates); assay type: cell-based; conditions: kernels soaked in 2.5 or 0.25 mg/ml
[4] = test system: Sitophilus primary endosymbiont (SPE, Candidatus Sodalis pierantonius); experiment: Sitophilus primary endosymbiont (SPE) level by qPCR in weevils; assay type: in vivo, Sitophilus zeamais; conditions: for SPE amount, water-treated weevils versus treated (F0): 18 days of treatment
Procedure: Sitophilus maize weevils (Sitophilus zeamais) were reared on organic corn at 27.5° C. and 70% relative humidity. Prior to being used for weevil rearing, corn was frozen for 7 days and then tempered to 10% humidity with sterile water. […] Ciprofloxacin (Sigma) stock solutions were made at 25 mg/ml in 0.1 N HCl, sterilized by passing through a 0.22 μm syringe filter, and stored at −20° C. For treatments, the appropriate amount of stock solution was diluted in sterile water.
(§1) Weevil survival was monitored daily for 18 days, after which DNA was extracted from the remaining weevils in each group. Briefly, the weevil body was surface sterilized by dipping the weevil into a 6% bleach solution for approximately 5 seconds. Weevils were then rinsed in sterile water and DNA was extracted from each individual aphid using a DNA extraction kit (Qiagen, DNeasy kit) according to manufacturer's instructions. […]; SEQ ID NO: 243). […]; SEQ ID NO: 245) (Login et al., 2011). qPCR was performed using a qPCR amplification ramp of 1.6 degrees C./s and the following conditions: 1) 95° C. for 10 minutes, 2) 95° C. for 15 seconds, 3) 57° C. for 30 seconds, 4) repeat steps 2-3 40×, 5) 95° C. for 15 seconds, 6) 55° C. for 1 minute, 7) ramp change to 0.15 degrees C./s, 8) 95° C. for 1 second. qPCR data was analyzed using analytic (Thermo Fisher Scientific, QuantStudio Design and Analysis) software.

[5] = test system: Sitophilus zeamais; experiment: Weevil survival; assay type: in vivo; conditions: 250 μg/ml or 2.5 mg/ml, 18 days
From the text: as §1

[6] = test system: Sitophilus zeamais; experiment: Development of F1 weevils in dissected corn kernels; assay type: in vivo; conditions: 250 ug/ml and 2.5 mg/ml
[7] = test system: Sitophilus zeamais; experiment: Emergence of F1 weevils (fecundity); conditions: 2.5 mg/ml, till day 43
[8] = test system: Acyrthosiphon pisum aphids; experiment: Aphid size (body area) from images; assay type: in vivo; conditions: 10 or 100 uM in artificial diet, 3 days post-treatment
Procedure: (§2) For adult aphids, new nymphs were counted daily and then discarded. At the end of the experiments, fecundity was determined as the mean number of offspring produced daily once the aphid reached adulthood. Pictures of aphids were taken throughout the experiment to evaluate size differences between treatment groups.
Each treatment group received approximately the same number of individuals from each of the collection plant. For each treatment, 20 aphids were placed onto each leaf. Aphids were monitored daily for survival and dead aphids were removed when they were discovered. In addition, the developmental stage (1st, 2nd, 3rd, 4th, 5th instar, and 5 R, representing a reproducing 5th instar) was determined daily throughout the experiment. […]
(§3) For adult aphids, new nymphs were counted daily and then discarded. At the end of the experiments, fecundity was measured in two ways: 1) the mean day at which the first offspring for the treatment group was determined and 2) the mean number of offspring produced daily once the aphid reached adulthood. […]
Aphids LSR-1 (which harbor only Buchnera), Acyrthosiphon pisum were grown on fava bean plants (Vroma vicia faba from Johnny's Selected Seeds) in a climate-controlled incubator (16 h light/8 h dark photoperiod; 60±5% RH; 25±2° C.). […] Aphids were monitored daily for survival and dead aphids were removed from the deep petri dish when they were discovered. […]

[9] = test system: Buchnera; experiment: Buchnera/aphid DNA copy number by qPCR; assay type: in vivo, Acyrthosiphon pisum; conditions: 10 or 100 uM, 8 days
[10] = test system: Acyrthosiphon pisum aphids; experiment: Aphid fecundity; assay type: in vivo; conditions: 10 or 100 uM
Procedure: (§4) In addition, the developmental stage (1st, 2nd, 3rd, 4th, 5th instar) was determined daily throughout the experiment. Once an aphid reached the 4th instar stage, they were given their own artificial feeding system in a deep petri dish so that fecundity could be monitored once they reached adulthood.
as §2
as §4, with “5th, and 5 R (5th that has reproduced)” for “5th”
as §3
In addition, the developmental stage (1st, 2nd, 3rd, 4th, 5th instar) was determined daily throughout the experiment. […]

[11] = test system: Acyrthosiphon pisum aphids; experiment: Aphid survival monitoring; assay type: in vivo
[12] = test system: Acyrthosiphon pisum aphids; experiment: Aphid developmental stage monitoring; assay type: in vivo
Procedure: as §4
Each treatment group received approximately the same number of individuals from each of the collection plant. For each treatment, 20 aphids were placed onto each leaf. Aphids were monitored daily for survival and dead aphids were removed when they were discovered. In addition, the developmental stage (1st, 2nd, 3rd, 4th, 5th instar, and 5 R, representing a reproducing 5th instar) was determined daily throughout the experiment. Pictures of aphids were taken throughout the experiment to evaluate size differences between treatment groups.
Aphids LSR-1 (which harbor only Buchnera), Acyrthosiphon pisum were grown on fava bean plants (Vroma vicia faba from Johnny's Selected Seeds) in a climate-controlled incubator (16 h light/8 h dark photoperiod; 60±5% RH; 25±2° C.). Prior to being used for aphid rearing, fava bean plants were grown in potting soil at 24° C. with 16 h of light and 8 h of darkness. To limit maternal effects or health differences between plants, 5-10 adults from different plants were distributed among 10 two-week-old plants, and allowed to multiply to high density for 5-7 days. For experiments, first and second instar aphids were collected from healthy plants and divided into 2 different treatment groups: 1) negative control (leaf injected with water plus blue food coloring) and 2) leaf injected with 50 μg/ml rifampicin in water plus blue food coloring. Each treatment group received approximately the same number of individuals from each of the collection plants. For treatment, rifampicin stock solution (25 mg/ml in 100% methanol) was diluted to 50 μg/ml in water plus blue food coloring. The solution was then placed into a 1.5 ml Eppendorf tube with a fava bean stem perfused with the solutions and the opening of the tube was closed using parafilm. This feeding system was then placed into a deep petri dish (Fisher Scientific, Cat #FB0875711) and aphids were applied to the leaves of the plant. For each treatment, 74-81 aphids were placed onto each leaf. The feeding systems were changed every 2-3 days throughout the experiment. Aphids were monitored daily for survival and dead aphids were removed from the deep petri dish when they were discovered. In addition, the developmental stage (1st, 2nd, 3rd, 4th, 5th and 5 R (5th that has reproduced) instar) was determined daily throughout the experiment.
In addition, the developmental stage (1st 2nd, 3rd, 4th, 5th and 5 R (5th that has reproduced) instar) was determined daily throughout the experiment.
(§5) In addition, the developmental stage (1st, 2nd, 3rd, 4th, 5th, and 5 R (5th that has reproduced) instar) was determined daily throughout the experiment.
In addition, the developmental stage (1st, 2nd, 3rd, 4th, 5th and 5 R (5th that has reproduced) instar) was determined daily throughout the experiment.
In addition, the developmental stage (1st, 2nd, 3rd, 4th, 5th, and 5 R (5th instar aphids that are reproducing) instar) was determined daily throughout the experiment.
In addition, the developmental stage (1st, 2nd, 3rd 4th and 5th instar) was determined daily throughout the experiment.
as §4, with “5th, and 5 R (5th that has reproduced)” for “5th”
as §5

[13] = test system: gram-negative and gram-positive bacteria as well as fungi; conditions: cited from earlier work
[14] = leaf coating, 10 uM in 0.025% Silwet L-77

CC[C@H]1OC(=O)[C@H](C)[C@@H](O[C@H]2C[C@@](C)(OC)[C@@H](O)[C@H](C)O2)[C@H](C)[C@@H](O[C@@H]2O[C@H](C)C[C@H](N(C)C)[C@H]2O)[C@](C)(O)C[C@@H](C)CN(C)[C@H](C)[C@@H](O)[C@]1(C)O [azithromycin]
Asaia specific genes (16S rDNA qPCR, ratio to S7) [1]: reduction of Asaia specific genes
survival rate of mosquitoes [2]: decreased compared to the control

O=C(O)c1cn(C2CC2)c2cc(N3CCNCC3)c(F)cc2c1=O [ciprofloxacin]
E. coli growth on plates with entire soaked corn kernels [3]: inhibition of bacterial growth; also recorded: no bacteria grew
SPE amount, water-treated weevils versus treated (F0) ([4]; 250 ug/ml): approximately 4 fold higher
SPE amount, water-treated weevils versus treated (F0) ([4]; 2.5 mg/ml): ~8 fold higher
SPE level, water-treated F1 weevils versus treated ([4]; 2.5 mg/ml, F1 weevils dissected from corn kernels): approximately 4 fold higher
weevil survival [5]: all weevils remained alive
development of F1 weevils [6]: delay in development
emerged F1 offspring [7]: much less offspring

CC(C)(CO)[C@@H](O)C(=O)NCCCO [pantothenol]
aphid size (area) [8]: drastic effect; also recorded: smaller in area than untreated controls
Buchnera/aphid DNA copies [9]: does not affect Buchnera/aphid DNA copy number directly
Buchnera/aphid DNA copies ([9]; listed as Pantothenol): did not affect endosymbiotic Buchnera
aphid reproduction [10]: loss of aphid reproduction
aphid reproduction ([10]; listed as Pantothenol): loss of reproduction
aphid survival ([11]; 10 or 100 uM in artificial diet, through plants): increased aphid mortality; also recorded: negatively affected aphid fitness
aphid survival [11, 14]: lower survival rates
aphid survival ([11]; leaf coating, 10 uM in 0.025% Silwet L-77, listed as Pantothenol): aphid death
aphid development ([12]; 10 or 100 uM in artificial diet without essential amino acids, through plants, eNASCO): delayed aphid development
aphid development [12, 14]: did not affect aphid development

B1: NCR335: NCR peptide, SEQ ID NO: 197 (peptide)
chain: MKMRIHMAQIIMFFYALIIFLSPFLVDRRSFPSSFVSPKSYTSEIPCKATRDCPYELYYETKCVDSLCTY
antimicrobial activity [13]: effective against gram-negative and gram-positive bacteria as well as fungi
